Source: PubChem BioAssay (NCI)
“And” between values parts separate entries of the source, which are not always exact repeats. Equal values may be shown once.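 Protocol summary: plate cells (96-well), add compound at 5 concentrations, incubate 48 h, interpolate endpoints linearly. At the GI50, growth is halved. The concentration for full growth arrest is given as TGI.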

Assays:
Assay in all cases: NCI-60 cell line screen, 48 h; in the data active = GI50 below about 0.43 µM; inactive = the rest
[1] = system: 786-0 renal
[2] = system: A498 renal
[3] = system: A549 NSCLC
[4] = system: ACHN renal
[5] = system: BT-549 breast
[6] = system: CAKI-1 renal
[7] = system: CCRF-CEM leukemia
[8] = system: COLO 205 colon
[9] = system: DU-145 prostate
[10] = system: EKVX NSCLC
[11] = system: HCC-2998 colon
[12] = system: HCT-116 colon
[13] = system: HCT-15 colon
[14] = system: HL-60(TB) leukemia
[15] = system: HOP-62 NSCLC
[16] = system: HOP-92 NSCLC
[17] = system: HS 578T breast
[18] = system: HT29 colon
[19] = system: IGROV1 ovarian
[20] = system: K-562 leukemia
[21] = system: KM12 colon
[22] = system: LOX IMVI melanoma
[23] = system: M14 melanoma
[24] = system: MALME-3M melanoma
[25] = system: MCF7 breast
[26] = system: MDA-MB-231 breast
[27] = system: MDA-MB-435
[28] = system: MDA-N
[29] = system: MOLT-4 leukemia
[30] = system: NCI-H226 lung
[31] = system: NCI-H23 lung
[32] = system: NCI-H460 lung
[33] = system: NCI-H522 lung
[34] = system: NCI/ADR-RES ovarian
[35] = system: OVCAR-3 ovarian
[36] = system: OVCAR-4 ovarian
[37] = system: OVCAR-5 ovarian
[38] = system: OVCAR-8 ovarian
[39] = system: PC-3 prostate
[40] = system: RXF 393 renal
[41] = system: SF-268 CNS
[42] = system: SF-295 CNS
[43] = system: SF-539 CNS
[44] = system: SK-MEL-2 melanoma
[45] = system: SK-MEL-28 melanoma
[46] = system: SK-MEL-5 melanoma
[47] = system: SK-OV-3 ovarian
[48] = system: SN12C renal
[49] = system: SNB-19 CNS
[50] = system: SNB-75 CNS
[51] = system: SR leukemia
[52] = system: SW-620 colon
[53] = system: T-47D breast
[54] = system: TK-10 renal
[55] = system: U251 CNS
[56] = system: UACC-257 melanoma
[57] = system: UACC-62 melanoma
[58] = system: UO-31 renal
[59] = system: RPMI-8226 leukemia

CCO/N=C(/CC)c1ccc(Br)s1
> 100 µM: TGI [1] | TGI [2] | TGI [3] | TGI [4] | TGI [5] | TGI [6] | TGI [7] | TGI [8] | TGI [9] | TGI [10] | TGI [11] | TGI [12] | TGI [13] | TGI [14] | TGI [15] | TGI [16] | TGI [17] | TGI [18] | TGI [19] | TGI [20] | TGI [21] | TGI [22] | TGI [23] | TGI [24] | TGI [25] | TGI [26] | TGI [27] | TGI [28] | TGI [29] | TGI [30] | TGI [31] | TGI [32] | TGI [33] | TGI [34] | TGI [35] | TGI [36] | TGI [37] | TGI [38] | TGI [39] | TGI [40] | TGI [41] | TGI [42] | TGI [43] | TGI [44] | TGI [45] | TGI [46] | TGI [47] | TGI [48] | TGI [49] | TGI [50] | TGI [51] | TGI [52] | TGI [53] | TGI [54] | TGI [55] | TGI [56] | TGI [57] | TGI [58]

Cc1ccc(NCc2nnc3c(-c4ccccc4)nc4ccccc4n23)cc1
> 100 µM: TGI [1] | TGI [2] | TGI [3] | TGI [4] | TGI [5] | TGI [6] | TGI [7] | TGI [9] | TGI [11] | TGI [12] | TGI [13] | TGI [15] | TGI [17] | TGI [18] | TGI [19] | TGI [20] | TGI [21] | TGI [23] | TGI [24] | TGI [25] | TGI [26] | TGI [27] | TGI [28] | TGI [29] | TGI [30] | TGI [32] | TGI [33] | TGI [34] | TGI [35] | TGI [36] | TGI [37] | TGI [38] | TGI [40] | TGI [41] | TGI [42] | TGI [43] | TGI [45] | TGI [47] | TGI [48] | TGI [49] | TGI [51] | TGI [52] | TGI [54] | TGI [55] | TGI [56] | TGI [57]
84.1 µM: TGI [10]
65.5 µM: TGI [44]
86.6 µM: TGI [8]
52.9 µM: TGI [39]
50 µM: TGI [16]
68.3 µM: TGI [14]
9.62 µM: TGI [53]
30.4 µM: TGI [46]
71.1 µM: TGI [22]

CCCC(CCC)C(=O)O
> 100 µM and 17400 µM: TGI [4]
9570 µM: TGI [46]
> 100 µM and 12400 µM: TGI [18]
> 100 µM and 10300 µM: TGI [8]
> 100 µM and 4830 µM: TGI [2]
inactive: GI50 [1] > 20000 µM | GI50 [2] > 100 µM | GI50 [3] > 100 µM | GI50 [4] > 100 µM | GI50 [5] > 100 µM | GI50 [6] > 100 µM | GI50 [7] > 100 µM | GI50 [8] > 100 µM | GI50 [9] > 100 µM | GI50 [10] > 20000 µM | GI50 [11] > 100 µM | GI50 [12] > 100 µM | GI50 [13] > 100 µM | GI50 [14] > 100 µM | GI50 [15] > 20000 µM | GI50 [16] > 100 µM | GI50 [18] > 100 µM | GI50 [19] > 100 µM | GI50 [20] > 100 µM | GI50 [21] > 100 µM | GI50 [22] > 100 µM | GI50 [23] 19900 µM | GI50 [24] > 100 µM | GI50 [25] > 100 µM | GI50 [26] > 100 µM | GI50 [27] > 100 µM | GI50 [29] > 100 µM | GI50 [30] > 20000 µM | GI50 [31] > 20000 µM | GI50 [32] > 100 µM | GI50 [33] > 100 µM | GI50 [34] > 100 µM | GI50 [35] > 100 µM | GI50 [36] > 100 µM | GI50 [37] > 20000 µM | GI50 [38] > 100 µM | GI50 [39] > 100 µM | GI50 [59] > 100 µM | GI50 [40] > 100 µM | GI50 [41] > 100 µM | GI50 [42] > 100 µM | GI50 [43] > 100 µM | GI50 [44] > 100 µM | GI50 [47] > 20000 µM | GI50 [48] > 20000 µM | GI50 [49] > 20000 µM | GI50 [50] > 100 µM | GI50 [51] > 100 µM | GI50 [52] > 100 µM | GI50 [53] > 100 µM | GI50 [54] > 100 µM | GI50 [55] > 100 µM | GI50 [56] > 100 µM | GI50 [57] > 100 µM | GI50 [58] > 100 µM
> 100 µM and 16700 µM: TGI [11]
> 100 µM and 18400 µM: TGI [50]
> 20000 µM: TGI [1] | TGI [3] | TGI [5] | TGI [6] | TGI [7] | TGI [9] | TGI [10] | TGI [12] | TGI [13] | TGI [14] | TGI [15] | TGI [16] | TGI [17] | TGI [19] | TGI [20] | TGI [21] | TGI [22] | TGI [23] | TGI [24] | TGI [25] | TGI [26] | TGI [27] | TGI [29] | TGI [30] | TGI [31] | TGI [32] | TGI [33] | TGI [34] | TGI [35] | TGI [36] | TGI [37] | TGI [38] | TGI [39] | TGI [59] | TGI [42] | TGI [43] | TGI [44] | TGI [47] | TGI [48] | TGI [49] | TGI [51] | TGI [52] | TGI [53] | TGI [54] | TGI [55] | TGI [56] | TGI [57] | TGI [58]
> 100 µM and 14600 µM: TGI [40]
> 100 µM: TGI [28] | TGI [45]
> 100 µM and 12000 µM: TGI [41]
